Reference: US11673897B2, “Compounds for the treatment of kinase-dependent disorders” (Exelixis, Inc., priority 2018, dated 2023)

Assays:
Assay type in all cases: cell-based
Met = Met (Homo sapiens (Human), UniProt P08581); experiment: Met autophosphorylation ELISA in PC-3 cells; settings: cellular, HGF-stimulated, phospho-Met ELISA, read-out: c-Met IC50
Description: PC-3 prostate cancer cells (ATCC #CRL-1435) were seeded at 4×10^4 cells/well onto 24-well plates (Greiner #662165), in DMEM (Thermo Fisher #11995-040) containing 10% FBS (Thermo Fisher #26140-079), 1% MEM NEAA (Thermo Fisher #11140-050), 1% GlutaMax (Thermo Fisher #35050-061), and 1% Penicillin Streptomycin (Thermo Fisher #15140-122). PC-3 cells were incubated at 37° C., 5% CO2 for 24 h and then starved for 3 h in serum-free medium. Test compounds were serially diluted to produce an 8-point dose curve in fresh serum-free medium to a final concentration of 0.3% DMSO (vehicle) and added to the cells and incubated for 1 h. Cells were then stimulated with 100 ng/mL recombinant human HGF (R&D Systems #294-HG-250) for 10 min, washed with cold PBS, and immediately lysed with 130 μL of cold 1× lysis buffer [20 mM Tris, 137 mM sodium chloride, 2 mM EDTA, 10% glycerol, 1% NP-40 alternative, 1 mM activated sodium orthovanadate, 1 mM PefaBloc SC (Sigma-Aldrich #11429868001), and protease/phosphatase inhibitor tablet (Thermo Fisher #A32959)]. Lysates were clarified by centrifugation and 100 μL/well added into the PathScan phospho-Met (panTyr) Sandwich ELISA (Cell Signaling Technology #7333). Assay was performed according to manufacturer's instructions. Positive control wells (100% activity) contained HGF-stimulated, DMSO-treated cell lysates. Negative control wells (0% activity) contained HGF-stimulated, reference inhibitor-treated cell lysates. IC50 values were calculated by nonlinear regression analysis using a 4-parameter logistic curve fit in ActivityBase XE (IDBS).

AXL = AXL (Homo sapiens (Human), UniProt P30530); experiment: AXL autophosphorylation ELISA in A-172 cells; settings: cellular, Gas6-stimulated, phospho-AXL ELISA
Description: A-172 glioblastoma cells (ATCC #CRL-1620) were seeded at 2.5×10^5 cells/well onto 24-well plates (Greiner #662165), in […] (Thermo Fisher #11995-040) containing 10% FBS (Thermo Fisher #26140-079), […] (Thermo Fisher #11140-050), […] (Thermo Fisher #35050-061), and 1% Penicillin Streptomycin (Thermo Fisher #15140-122). A-172 cells were incubated at 37° C., […] for 24 hand then starved for 24 h in serum-free medium. Test compounds were serially diluted to produce an 8-point dose curve in fresh serum-free medium to a final concentration of 0.3% DMSO (vehicle) and added to the cells and incubated for 1 h. Cells were then stimulated with 1 μg/mL recombinant human Gas6 (R&D Systems #885-GSB-500) for 15 min, washed with cold PBS, and immediately lysed with 150 μL of cold 1× lysis buffer [20 mM Tris, 137 mM sodium chloride, 2 mM EDTA, 10% glycerol, 1% NP-40 alternative, 1 mM activated sodium orthovanadate, 1 mM PefaBloc SC (Sigma-Aldrich #11429868001), protease/phosphatase inhibitor tablet (Thermo Fisher #A32959)]. Lysates were collected and 100 μL/well added into the human phospho-AXL DuoSet IC ELISA (R&D Systems #DYC2228-2). Assay was performed according to manufacturer's instructions and sample phospho-AXL concentrations were extrapolated using human phospho-AXL control (R&D Systems #841645) as a standard. Positive control wells (100% activity) contained Gas6-stimulated, DMSO-treated cell lysates. Negative control wells (0% activity) contained Gas6-stimulated, reference inhibitor-treated cell lysates. IC50 values were calculated by nonlinear regression analysis using a 4-parameter logistic curve fit in ActivityBase XE (IDBS).

Mer = Mer (Homo sapiens (Human), UniProt Q12866); experiment: Mer autophosphorylation ELISA in transient transfected 293A cells; settings: cellular, MERTK-transfected 293A cells, phospho-Mer ELISA
Description: 293A cells (Thermo Fisher #R70507) were seeded at 1.5×10^6 cells/well onto 100 mm dish (Greiner #664169), in DMEM (Thermo Fisher #11995-040) containing 10% FBS (Thermo Fisher #26140-079), 1% MEM NEAA (Thermo Fisher #11140-050), 1% GlutaMax (Thermo Fisher #35050-061), and 1% Penicillin Streptomycin (Thermo Fisher #15140-122). 293A cells were incubated at 37° C., 5% CO2 for 24 h and then transfected with 6 μg MERTK DNA (Genecopoeia #EX-Z8208-M02) using TransIT LT1 transfection reagent (Mirus-Bio #MIR2305). After 24 h incubation, the transfected 293A cells were seeded at 1×10^5 cells/well onto 96-well plates (Corning #3904) in DMEM growth medium overnight. Test compounds were serially diluted to produce an 8-point dose curve in fresh serum-free medium to a final concentration of 0.3% DMSO (vehicle) and added to the cells and incubated for 1 h. Cells were then immediately lysed with 150 μL of cold 1× lysis buffer [20 mM Tris, 137 mM sodium chloride, 2 mM EDTA, 10% glycerol, 1% NP-40 alternative, 1 mM activated sodium orthovanadate, 1 mM PefaBloc SC (Sigma-Aldrich #11429868001), protease/phosphatase inhibitor tablet (Thermo Fisher #A32959)]. Lysates were clarified by centrifugation and 50 μL/well added into the human phospho-Mer DuoSet IC ELISA (R&D Systems #DYC2579-2). Assay was performed according to manufacturer's instructions and sample phospho-Mer concentrations were extrapolated using human phospho-Mer control (R&D Systems #841793) as a standard. Positive control wells (100% activity) contained DMSO-treated cell lysates. Negative control wells (0% activity) contained reference inhibitor-treated cell lysates. IC50 values were calculated by nonlinear regression analysis using a 4-parameter logistic curve fit in ActivityBase XE (IDBS).

KDR = KDR (Homo sapiens (Human), UniProt P35968); experiment: KDR autophosphorylation ELISA in HUVEC cells; settings: cellular, VEGF165-stimulated, phospho-KDR ELISA
Description: Human umbilical vein endothelial cells or HUVEC (Lonza #C2519A) were seeded at 2×10^4 cells/well onto 96-well plates (Corning #3904), in EGM-2 growth medium (Lonza #CC-3162) containing 1% Penicillin Streptomycin (Thermo Fisher #15140-122). HUVEC cells were incubated at 37° C., 5% CO2 for 24 h and then starved for 24 h in serum-free EBM-2 basal medium (Lonza #CC-3156) containing 1% Penicillin Streptomycin. Test compounds were serially diluted to produce an 8-point dose curve in fresh serum-free medium to a final concentration of 0.3% DMSO (vehicle) and added to the cells and incubated for 1 h. Cells were then stimulated with 100 ng/mL recombinant human VEGF165 (R&D Systems #293-VE-500) for 5 min, washed with cold PBS, and immediately lysed with 130 μL of cold 1× lysis buffer [20 mM Tris, 137 mM sodium chloride, 2 mM EDTA, 10% glycerol, 1% NP-40 alternative, 1 mM activated sodium orthovanadate, 1 mM PefaBloc SC (Sigma-Aldrich #11429868001), protease/phosphatase inhibitor tablet (Thermo Fisher #A32959)]. Lysates were collected and 100 μL/well added into the human phospho-KDR DuoSet IC ELISA (R&D Systems #DYC1766-2). Assay was performed according to manufacturer's instructions and sample phospho-KDR concentrations were extrapolated using human phospho-KDR control (R&D Systems #841421) as a standard. Positive control wells (100% activity) contained VEGF165-stimulated, DMSO-treated cell lysates. Negative control wells (0% activity) contained non-stimulated cell lysates. IC50 values were calculated by nonlinear regression analysis using a 4-parameter logistic curve fit in ActivityBase XE (IDBS).

Chain of Mer (Q12866 21-999): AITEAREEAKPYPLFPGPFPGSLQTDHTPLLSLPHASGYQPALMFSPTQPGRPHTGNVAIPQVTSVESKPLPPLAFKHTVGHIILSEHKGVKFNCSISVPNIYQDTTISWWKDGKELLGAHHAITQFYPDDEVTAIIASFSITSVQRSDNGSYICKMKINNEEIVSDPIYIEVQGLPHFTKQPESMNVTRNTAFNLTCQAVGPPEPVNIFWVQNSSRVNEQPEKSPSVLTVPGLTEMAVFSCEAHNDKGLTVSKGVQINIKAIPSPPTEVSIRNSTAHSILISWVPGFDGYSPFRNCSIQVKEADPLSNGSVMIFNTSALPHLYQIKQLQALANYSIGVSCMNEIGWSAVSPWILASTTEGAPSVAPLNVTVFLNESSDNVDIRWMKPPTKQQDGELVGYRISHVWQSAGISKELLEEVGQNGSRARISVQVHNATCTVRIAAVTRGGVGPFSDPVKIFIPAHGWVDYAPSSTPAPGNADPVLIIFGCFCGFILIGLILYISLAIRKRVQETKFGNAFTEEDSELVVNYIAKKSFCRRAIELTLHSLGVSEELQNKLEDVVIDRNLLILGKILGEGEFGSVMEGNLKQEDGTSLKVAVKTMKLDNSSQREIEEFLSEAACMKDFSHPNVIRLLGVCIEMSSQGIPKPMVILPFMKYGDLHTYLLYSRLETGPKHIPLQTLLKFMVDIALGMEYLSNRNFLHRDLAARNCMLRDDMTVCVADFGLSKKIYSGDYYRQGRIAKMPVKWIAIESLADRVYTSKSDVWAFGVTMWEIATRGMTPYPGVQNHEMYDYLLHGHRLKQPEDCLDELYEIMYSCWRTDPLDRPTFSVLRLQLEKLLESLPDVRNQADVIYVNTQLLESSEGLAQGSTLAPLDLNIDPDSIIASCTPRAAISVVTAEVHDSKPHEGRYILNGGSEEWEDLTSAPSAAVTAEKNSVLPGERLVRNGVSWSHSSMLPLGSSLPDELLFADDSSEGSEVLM
Chain of AXL (P30530 26-894): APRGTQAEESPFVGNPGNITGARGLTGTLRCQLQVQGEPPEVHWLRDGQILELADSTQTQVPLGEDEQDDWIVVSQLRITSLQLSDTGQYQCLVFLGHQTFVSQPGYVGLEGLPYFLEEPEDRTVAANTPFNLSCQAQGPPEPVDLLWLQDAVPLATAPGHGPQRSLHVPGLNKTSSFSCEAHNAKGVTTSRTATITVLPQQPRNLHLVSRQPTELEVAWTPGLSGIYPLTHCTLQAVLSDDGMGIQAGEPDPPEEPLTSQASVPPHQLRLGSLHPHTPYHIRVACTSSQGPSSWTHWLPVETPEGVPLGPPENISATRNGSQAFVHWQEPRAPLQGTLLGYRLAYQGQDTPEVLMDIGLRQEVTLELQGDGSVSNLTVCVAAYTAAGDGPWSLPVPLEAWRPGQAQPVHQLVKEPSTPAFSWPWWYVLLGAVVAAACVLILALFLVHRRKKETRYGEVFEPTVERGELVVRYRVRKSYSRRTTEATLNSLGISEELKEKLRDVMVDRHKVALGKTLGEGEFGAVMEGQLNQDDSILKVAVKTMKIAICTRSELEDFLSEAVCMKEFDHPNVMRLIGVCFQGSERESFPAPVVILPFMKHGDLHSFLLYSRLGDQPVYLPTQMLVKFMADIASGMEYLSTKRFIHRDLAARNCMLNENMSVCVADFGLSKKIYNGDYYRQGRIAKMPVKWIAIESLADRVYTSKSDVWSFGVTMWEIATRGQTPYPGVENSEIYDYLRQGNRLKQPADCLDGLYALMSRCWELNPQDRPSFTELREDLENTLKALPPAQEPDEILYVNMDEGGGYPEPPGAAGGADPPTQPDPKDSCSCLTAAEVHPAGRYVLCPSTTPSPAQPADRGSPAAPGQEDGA
Chain of KDR (P35968 20-1356): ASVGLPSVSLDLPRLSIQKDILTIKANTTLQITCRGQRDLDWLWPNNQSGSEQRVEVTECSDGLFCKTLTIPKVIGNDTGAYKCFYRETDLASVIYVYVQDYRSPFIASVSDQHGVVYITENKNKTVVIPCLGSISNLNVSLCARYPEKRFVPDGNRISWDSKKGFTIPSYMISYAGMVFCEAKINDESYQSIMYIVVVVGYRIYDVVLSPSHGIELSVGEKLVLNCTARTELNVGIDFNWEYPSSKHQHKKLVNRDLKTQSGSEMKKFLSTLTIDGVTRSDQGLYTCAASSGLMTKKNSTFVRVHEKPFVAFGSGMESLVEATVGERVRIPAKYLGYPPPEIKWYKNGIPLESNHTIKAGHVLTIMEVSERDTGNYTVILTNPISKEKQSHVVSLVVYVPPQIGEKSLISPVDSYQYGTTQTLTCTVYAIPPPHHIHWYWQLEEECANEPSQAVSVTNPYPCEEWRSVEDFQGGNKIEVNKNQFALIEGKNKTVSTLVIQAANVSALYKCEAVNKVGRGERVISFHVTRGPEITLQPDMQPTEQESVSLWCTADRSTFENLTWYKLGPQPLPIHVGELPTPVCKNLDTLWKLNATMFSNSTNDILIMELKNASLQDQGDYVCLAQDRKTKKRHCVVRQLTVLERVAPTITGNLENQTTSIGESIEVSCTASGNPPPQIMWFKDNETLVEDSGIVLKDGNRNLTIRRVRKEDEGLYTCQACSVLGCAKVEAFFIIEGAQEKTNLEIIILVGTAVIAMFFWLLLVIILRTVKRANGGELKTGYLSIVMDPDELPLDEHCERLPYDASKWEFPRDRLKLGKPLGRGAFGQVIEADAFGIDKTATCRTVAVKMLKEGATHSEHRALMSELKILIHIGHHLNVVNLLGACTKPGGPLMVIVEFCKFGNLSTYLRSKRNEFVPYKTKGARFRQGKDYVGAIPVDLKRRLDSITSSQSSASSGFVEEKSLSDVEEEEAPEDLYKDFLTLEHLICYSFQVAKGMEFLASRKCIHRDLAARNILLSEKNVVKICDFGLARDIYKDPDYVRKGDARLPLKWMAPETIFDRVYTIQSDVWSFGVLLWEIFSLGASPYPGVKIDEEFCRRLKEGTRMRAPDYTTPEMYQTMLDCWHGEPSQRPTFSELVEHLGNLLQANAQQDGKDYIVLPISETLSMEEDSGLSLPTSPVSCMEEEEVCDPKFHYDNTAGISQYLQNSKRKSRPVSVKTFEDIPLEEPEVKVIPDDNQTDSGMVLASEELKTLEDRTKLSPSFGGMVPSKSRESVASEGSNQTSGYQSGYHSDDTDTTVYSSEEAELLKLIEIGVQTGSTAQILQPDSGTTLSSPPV
Chain of Met (P08581 25-1390): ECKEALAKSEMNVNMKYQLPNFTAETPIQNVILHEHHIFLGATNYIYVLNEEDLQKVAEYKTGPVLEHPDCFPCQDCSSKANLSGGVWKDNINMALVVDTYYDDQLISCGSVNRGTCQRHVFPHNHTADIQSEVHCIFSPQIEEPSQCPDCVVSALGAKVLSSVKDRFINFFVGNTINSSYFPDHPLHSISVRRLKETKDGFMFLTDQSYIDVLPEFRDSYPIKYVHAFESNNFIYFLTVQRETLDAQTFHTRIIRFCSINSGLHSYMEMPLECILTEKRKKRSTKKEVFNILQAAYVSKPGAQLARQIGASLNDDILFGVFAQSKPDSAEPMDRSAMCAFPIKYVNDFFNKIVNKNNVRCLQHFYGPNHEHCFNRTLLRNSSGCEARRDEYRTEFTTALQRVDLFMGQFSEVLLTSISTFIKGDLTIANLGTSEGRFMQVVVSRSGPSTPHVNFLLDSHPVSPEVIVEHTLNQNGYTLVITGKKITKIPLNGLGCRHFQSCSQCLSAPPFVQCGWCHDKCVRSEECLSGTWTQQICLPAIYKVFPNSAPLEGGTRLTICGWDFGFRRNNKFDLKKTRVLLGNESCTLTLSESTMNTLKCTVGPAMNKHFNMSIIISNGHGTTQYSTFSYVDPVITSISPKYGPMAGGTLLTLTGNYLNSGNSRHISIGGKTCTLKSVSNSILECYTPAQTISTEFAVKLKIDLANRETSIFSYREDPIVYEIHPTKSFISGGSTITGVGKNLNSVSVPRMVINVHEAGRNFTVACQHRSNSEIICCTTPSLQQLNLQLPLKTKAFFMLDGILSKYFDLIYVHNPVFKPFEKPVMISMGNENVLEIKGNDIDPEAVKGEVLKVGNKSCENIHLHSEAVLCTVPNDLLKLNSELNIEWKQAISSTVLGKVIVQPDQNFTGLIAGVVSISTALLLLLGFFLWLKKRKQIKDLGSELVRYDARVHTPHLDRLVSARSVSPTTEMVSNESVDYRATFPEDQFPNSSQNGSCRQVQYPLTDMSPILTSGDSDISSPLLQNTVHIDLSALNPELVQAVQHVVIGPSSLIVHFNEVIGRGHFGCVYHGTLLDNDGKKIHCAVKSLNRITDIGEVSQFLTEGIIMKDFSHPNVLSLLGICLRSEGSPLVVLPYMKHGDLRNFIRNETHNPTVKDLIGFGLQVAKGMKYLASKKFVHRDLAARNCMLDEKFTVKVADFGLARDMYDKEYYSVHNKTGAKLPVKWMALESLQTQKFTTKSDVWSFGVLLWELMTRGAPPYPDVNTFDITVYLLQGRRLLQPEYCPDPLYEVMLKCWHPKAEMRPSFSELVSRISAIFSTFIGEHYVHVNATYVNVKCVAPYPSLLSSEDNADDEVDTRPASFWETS

CNC(=O)c1cc2c(Oc3ncc(NC(=O)C4(C(=O)Nc5ccc(F)cc5)CC4)cc3Cl)ccnc2cc1OC [Compound 19, 1-N′-[5-Chloro-6-[7-methoxy-6-(methylcarbamoyl)quinolin-4-yl]oxypyridin-3-yl]-1-N-(4-fluorophenyl)cyclopropane-1,1-dicarboxamide]
IC50 (Met): 10 to 100 nM
IC50 (AXL): ≤ 10 nM
IC50 (Mer): 10 to 100 nM
IC50 (KDR): > 300 nM

CCNC(=O)c1cc2c(Oc3ncc(NC(=O)C4(C(=O)Nc5ccc(F)cc5)CC4)cc3Cl)ccnc2cc1OC [Compound 20, 1-N′-[5-Chloro-6-[6-(ethylcarbamoyl)-7-methoxyquinolin-4-yl]oxypyridin-3-yl]-1-N-(4-fluorophenyl)cyclopropane-1,1-dicarboxamide]
IC50 (Met): 10 to 100 nM
IC50 (AXL): 10 to 100 nM
IC50 (Mer): 10 to 100 nM
IC50 (KDR): > 300 nM

COc1cc2nccc(Oc3ncc(NC(=O)C4(C(=O)Nc5ccc(F)cc5)CC4)cc3F)c2cc1C(N)=O [Compound 21, 1-N′-[6-(6-Carbamoyl-7-methoxyquinolin-4-yl)oxy-5-fluoropyridin-3-yl]-1-N-(4-fluorophenyl)cyclopropane-1,1-dicarboxamide]
IC50 (Met): 10 to 100 nM
IC50 (AXL): ≤ 10 nM
IC50 (Mer): 10 to 100 nM
IC50 (KDR): > 300 nM

CNC(=O)c1cc2c(Oc3ncc(NC(=O)C4(C(=O)Nc5ccc(F)cc5)CC4)cc3F)ccnc2cc1OC [Compound 22, 1-N′-[5-Fluoro-6-[7-methoxy-6-(methylcarbamoyl)quinolin-4-yl]oxypyridin-3-yl]-1-N-(4-fluorophenyl)cyclopropane-1,1-dicarboxamide]
IC50 (Met): 10 to 100 nM
IC50 (AXL): ≤ 10 nM
IC50 (Mer): 10 to 100 nM
IC50 (KDR): > 300 nM

COCCOc1cc2nccc(Oc3ccc(NC(=O)C4(C(=O)Nc5ccc(F)cc5)CC4)cn3)c2nc1OC [Compound 114, 1-N-(4-Fluorophenyl)-1-N′-[6-[[6-methoxy-7-(2-methoxyethoxy)-1,5-naphthyridin-4-yl]oxy]pyridin-3-yl]cyclopropane-1,1-dicarboxamide]
IC50 (Met): 100 to 300 nM
IC50 (AXL): 100 to 300 nM
IC50 (KDR): > 300 nM

COCCOc1cc2nccc(Oc3ncc(NC(=O)C4(C(=O)Nc5ccc(F)cc5)CC4)cc3Cl)c2nc1OC [Compound 115, 1-N′-[5-Chloro-6-[[6-methoxy-7-(2-methoxyethoxy)-1,5-naphthyridin-4-yl]oxy]pyridin-3-yl]-1-N-(4-fluorophenyl)cyclopropane-1,1-dicarboxamide]
IC50 (Met): 10 to 100 nM
IC50 (AXL): 100 to 300 nM
IC50 (KDR): > 300 nM

COc1nc2c(Oc3ncc(NC(=O)C4(C(=O)Nc5ccc(F)cc5)CC4)cc3F)ccnc2cc1O [Compound 121, 1-N′-[5-Fluoro-6-[(7-hydroxy-6-methoxy-1,5-naphthyridin-4-yl)oxy]pyridin-3-yl]-1-N-(4-fluorophenyl)cyclopropane-1,1-dicarboxamide]
IC50 (Met): > 300 nM
IC50 (AXL): > 300 nM
IC50 (KDR): > 300 nM

COCCOc1nc2c(Oc3ncc(NC(=O)C4(C(=O)Nc5ccc(F)cc5)CC4)cc3F)ccnc2cc1OC [Compound 134, 1-N′-[5-Fluoro-6-[[7-methoxy-6-(2-methoxyethoxy)-1,5-naphthyridin-4-yl]oxy]pyridin-3-yl]-1-N-(4-fluorophenyl)cyclopropane-1,1-dicarboxamide]
IC50 (Met): > 300 nM
IC50 (AXL): > 300 nM
IC50 (KDR): > 300 nM

COc1cc2nccc(Oc3ncc(NC(=O)C4(C(=O)Nc5ccc(F)cc5)CC4)cc3F)c2nc1OCCCN1CCOCC1 [Compound 135, 1-N′-[5-Fluoro-6-[[7-methoxy-6-(3-morpholin-4-ylpropoxy)-1,5-naphthyridin-4-yl]oxy]pyridin-3-yl]-1-N-(4-fluorophenyl)cyclopropane-1,1-dicarboxamide]
IC50 (Met): > 300 nM
IC50 (AXL): > 300 nM
IC50 (KDR): > 300 nM

COc1cc2ncnc(Oc3ccc(NC(=O)C4(C(=O)Nc5ccc(F)cc5)CC4)cn3)c2nc1OC [Compound 145, 1-N′-[6-(6,7-Dimethoxypyrido[3,2-d]pyrimidin-4-yl)oxypyridin-3-yl]-1-N-(4-fluorophenyl)cyclopropane-1,1-dicarboxamide]
IC50 (Met): > 300 nM
IC50 (AXL): 100 to 300 nM
IC50 (KDR): > 300 nM

COCCOc1cc2ncnc(Oc3ccc(NC(=O)C4(C(=O)Nc5ccc(F)cc5)CC4)cn3)c2nc1OC [Compound 156, 1-N-(4-Fluorophenyl)-1-N′-[6-[6-methoxy-7-(2-methoxyethoxy)pyrido[3,2-d]pyrimidin-4-yl]oxypyridin-3-yl]cyclopropane-1,1-dicarboxamide]
IC50 (Met): > 300 nM
IC50 (AXL): 10 to 100 nM
IC50 (KDR): > 300 nM

COCCOc1cc2ncnc(Oc3ncc(NC(=O)C4(C(=O)Nc5ccc(F)cc5)CC4)cc3F)c2nc1OC [Compound 159, 1-N′-[5-Fluoro-6-[6-methoxy-7-(2-methoxyethoxy)pyrido[3,2-d]pyrimidin-4-yl]oxypyridin-3-yl]-1-N-(4-fluorophenyl)cyclopropane-1,1-dicarboxamide]
IC50 (Met): > 300 nM
IC50 (AXL): > 300 nM
IC50 (KDR): > 300 nM
